Data as given in US20260274892A1, “MACROCYCLIC BROAD SPECTRUM ANTIBIOTICS” (RQx Pharmaceuticals, Inc., priority 2017, published 2026).

Tests used:
[1] = test system: Escherichia coli ATCC 25922; test: Minimum inhibitory concentration (MIC), CLSI broth micro-dilution, E. coli; assay type: cell-based; conditions: Escherichia coli, ATCC25922, 22 h, Table 6, cation adjusted Mueller Hinton Broth + 0.002% Tween-80, 35° C.
Procedure, shortened: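 Antibacterial potency is measured as MIC by the CLSI broth dilution method. Bacteria at OD600 0.0005 in Tween-80-supplemented cation-adjusted Mueller Hinton broth face ten twofold compound dilutions for 22 h at 35° C.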

[2] = test system: Methicillin Resistant Staphylococcus aureus strain USA 200; test: Minimum inhibitory concentration (MIC), CLSI broth micro-dilution, S. aureus; assay type: cell-based; conditions: Staphylococcus aureus, MRSA / USA200; Table 6; MRSA USA 200; cation adjusted Mueller Hinton Broth + 0.002% Tween-80; 35° C., 22 hours
Experimental: In vitro antimicrobial activity of each compound was determined by measuring minimal inhibitor concentrations (MICs) using the broth micro-dilution technique as approved by the Clinical and Laboratory Standards Institute (CLSI) (Methods for Dilution Antimicrobial Susceptibility Tests for Bacteria that Grow Aerobically; Approved Standard-Eighth Edition. CLSI document M07-A8. Wayne, PA: Clinical and Laboratroy Standards; 2009). Antibacterial activity was measure against two strains of bacteria: a Methicillin Resistant Staphylococcus aureus strain USA 200, (S. aureus) and Escherichia coli ATCC 25922 (E. coli), a clinically relevant Gram-negative strain. Cells were inoculated onto plates of Trypyticase Soy Agar or Luria Agar respectively and grown at 35° C. for 20 hours. Inocula suspensions were prepared by scraping cells into 1 mL of testing media (cation adjusted Mueller Hinton Broth supplemented with 0.002% v/v Tween-80) and diluting to a final OD600nm of 0.01.
Test compounds were prepared in DMSO at a concentration of 10 mg/mL. In protocol 1, the compound stocks were diluted into testing media at a concentration of 64 µg/ml and serial 2-fold dilutions were made in the same media, in 96-well U bottom microtiter dishes, for a total of 10 compound concentrations. In protocol 2, the compound stocks were diluted into testing media at a concentration of 4 µg/mL and serial 2-fold dilutions were made in the same media, in 96-well U bottom microtiter dishes, for a total of 10 compound concentrations. In protocol 3, compound stocks were diluted into testing media at a concentration of 0.5 μg/mL, with serial 2-fold dilutions conducted as described above. In protocol 4, compound stocks were diluted into testing media at a concentration of […], with serial 2-fold dilutions conducted as described above. Inocula suspensions were added to the 2-fold serial dilutions of test compounds to a final density of GD OD600nm of 0.0005 and incubated at 35° C. for 22 hours.

Row | Compound | MIC [1] | MIC [2]
1 | Cc1nc(-c2ccc(CCC(C)C)cc2)ncc1C(=O)N[C@@H](CCN)C(=O)N(C)[C@@H]1C(=O)N[C@@H](C)C(=O)N[C@H](C(=O)NCC#N)Cc2ccc(OCCN)c(c2)-c2cc1ccc2OCCN (racemic) [Compound 220, rac-(8S,11S,14S)-3,18-bis(2-aminoethoxy)-N-(cyanomethyl)-11-methyl-14-[methyl-[rac-(2S)-4-amino-2-[[2-(4-isopentylphenyl)-4-methyl-pyrimidine-5-carbonyl]amino]butanoyl]amino]-10,13-dioxo-9,12-diazatricyclo[13.3.1.12,6]icosa-1(18),2(20),3,5,15(19),16-hexaene-8-carboxamide] | 0.099 µM | 0.0062 µM
2 | CCc1ccc(-c2ncc(C(=O)N[C@@H](CCN)C(=O)N(C)[C@@H]3C(=O)N[C@@H](C)C(=O)N[C@H](C(=O)NCC#N)Cc4ccc(OCCN)c(c4)-c4cc3ccc4OCCN)c(C)n2)c2ccccc12 (racemic) [Compound 221, rac-(8S,11S,14S)-3,18-bis(2-aminoethoxy)-N-(cyanomethyl)-11-methyl-14-[methyl-[rac-(2S)-4-amino-2-[[2-(4-ethyl-1-naphthyl)-4-methyl-pyrimidine-5-carbonyl]amino]butanoyl]amino]-10,13-dioxo-9,12-diazatricyclo[13.3.1.12,6]icosa-1(18),2(20),3,5,15(19),16-hexaene-8-carboxamide] | 1 µM | 0.024 µM

The next lines start with the values.

Row | MIC [1] | MIC [2] | Compound
3 | 0.53 µM | 0.033 µM | CCCc1ccc(-c2ncc(C(=O)N[C@@H](CCN)C(=O)N(C)[C@@H]3C(=O)N[C@@H](C)C(=O)N[C@H](C(=O)NCC#N)Cc4ccc(OCCN)c(c4)-c4cc3ccc4OCCN)c(C)n2)c(C)c1 (racemic) [Compound 222, rac-(8S,11S,14S)-3,18-bis(2-aminoethoxy)-N-(cyanomethyl)-11-methyl-14-[methyl-[rac-(2S)-4-amino-2-[[4-methyl-2-(2-methyl-4-propyl-phenyl)pyrimidine-5-carbonyl]amino]butanoyl]amino]-10,13-dioxo-9,12-diazatricyclo[13.3.1.12,6]icosa-1(18),2(20),3,5,15(19),16-hexaene-8-carboxamide]
4 | 0.26 µM | 0.016 µM | CCCCc1ccc(-c2ncc(C(=O)N[C@@H](CCN)C(=O)N(C)[C@@H]3C(=O)N[C@@H](C)C(=O)N[C@H](C(=O)NCC#N)Cc4ccc(OCCN)c(c4)-c4cc3ccc4OCCN)c(C)n2)c(C)c1 (racemic) [Compound 223, rac-(8S,11S,14S)-3,18-bis(2-aminoethoxy)-N-(cyanomethyl)-11-methyl-14-[methyl-[rac-(2S)-4-amino-2-[[2-(4-butyl-2-methyl-phenyl)-4-methyl-pyrimidine-5-carbonyl]amino]butanoyl]amino]-10,13-dioxo-9,12-diazatricyclo[13.3.1.12,6]icosa-1(18),2(20),3,5,15(19),16-hexaene-8-carboxamide]
5 | 0.13 µM | 0.017 µM | Cc1nc(-c2ccc(C3(C)CC3)cc2)ncc1C(=O)N[C@@H](CCN)C(=O)N(C)[C@@H]1C(=O)N[C@@H](C)C(=O)N[C@H](C(=O)NCC#N)Cc2ccc(OCCN)c(c2)-c2cc1ccc2OCCN (racemic) [Compound 224, rac-(8S,11S,14S)-3,18-bis(2-aminoethoxy)-N-(cyanomethyl)-11-methyl-14-[methyl-[rac-(2S)-4-amino-2-[[4-methyl-2-[4-(1-methylcyclopropyl)phenyl]pyrimidine-5-carbonyl]amino]butanoyl]amino]-10,13-dioxo-9,12-diazatricyclo[13.3.1.12,6]icosa-1(18),2(20),3,5,15(19),16-hexaene-8-carboxamide]
